Data on four compounds can be found in patent publication US20030229922A1, “Materials and methods for the modification of plant cell wall polysaccharides” (GENESIS RESEARCH AND DEVELOPMENT CORPORATION LTD., priority 1998, published 2003).

Each structure is given as a SMILES string. Where two headings read alike, the source gives them in different places.

Assay [1] concerns S. tuberosum UGP (Nakano et al.). Conditions: cited from earlier work.
Assay [2] deals with S. tuberosum UGP (Katsube et al.). Conditions: cited from earlier work.
In assay [3] the target is T1, Eucalyptus grandis UGP (UDP-glucose pyrophosphorylase), SEQ ID NO: 79 (DNA; protein SEQ ID NO: 103) (Eucalyptus grandis, UniProt B3VDY8).
T1 construct: wild type
T1 sequence (B3VDY8 entry or part of it): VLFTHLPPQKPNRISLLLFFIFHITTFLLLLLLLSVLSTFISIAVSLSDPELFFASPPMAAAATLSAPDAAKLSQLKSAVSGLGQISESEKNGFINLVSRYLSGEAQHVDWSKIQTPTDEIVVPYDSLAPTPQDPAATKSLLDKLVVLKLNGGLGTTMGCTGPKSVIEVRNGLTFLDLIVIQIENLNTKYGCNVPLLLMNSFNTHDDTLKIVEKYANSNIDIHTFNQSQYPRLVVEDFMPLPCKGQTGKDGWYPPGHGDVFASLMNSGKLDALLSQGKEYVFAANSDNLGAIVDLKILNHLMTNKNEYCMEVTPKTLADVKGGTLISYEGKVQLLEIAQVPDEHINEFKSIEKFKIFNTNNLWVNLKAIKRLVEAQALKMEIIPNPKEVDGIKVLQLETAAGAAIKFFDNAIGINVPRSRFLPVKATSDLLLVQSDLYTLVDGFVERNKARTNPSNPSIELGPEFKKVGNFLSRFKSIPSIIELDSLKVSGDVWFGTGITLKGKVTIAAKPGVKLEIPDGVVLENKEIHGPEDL
The experiment in a line: UGP enzyme assay (purified recombinant protein). Conditions: E. grandis UGP. It is filed as biochemical. The text has this:
Sense constructs containing sequences including the coding regions for UGP (SEQ ID NO: 79) and SUS (SEQ ID NO: 105) from Eucalyptus grandis, and UGP (SEQ ID NO: 80) from Pinus radiata were inserted into the expression vector pET16b (Clontech Laboratories Inc, Palo Alto, Calif.). The resulting constructs were transformed into E. coli XL1-Blue (Stratagene) and induced to produce recombinant protein by the addition of IPTG. Purified proteins were obtained using Ni^2+ column chromatography (Janknecht et al., Proc. Natl. Acad. Sci. USA, 88:8972-8976, 1991).
Enzyme assays for UGP were performed using published methods (Peng and Chang, FEBS Lett. 329:153-158, 1993).

In assay [4] the test system is V. radiata SUS (sucrose synthase) (Delmer et al.). Conditions: SEM n.a.; cited from earlier work.

`Nc1ncnc2c1ncn2[C@@H]1O[C@H](COP(=O)(O)OP(=O)(O)OP(=O)(O)O)[C@@H](O)[C@H]1O` [ATP]: the “KM^ATP” value in assay [1], in assay [2] and in assay [3] was “no activity” throughout.
Take `OC[C@H]1O[C@@](CO)(O[C@H]2O[C@H](CO)[C@@H](O)[C@H](O)[C@H]2O)[C@@H](O)[C@@H]1O` [Sucrose]: in assay [4], the Michaelis constant (Km) is 16700 µM.
Turning to `O=c1ccn([C@@H]2O[C@H](COP(=O)(O)OP(=O)(O)OP(=O)(O)O)[C@@H](O)[C@H]2O)c(=O)[nH]1` [UTP], the Km in assay [1] (read-out: KM^UTP, SEM n.a.) is 170 µM; in assay [2] (read-out: KM^UTP, SEM n.a.) it was 76 µM.
Regarding `O=P(O)(O)O[C@H]1O[C@H](CO)[C@@H](O)[C@H](O)[C@H]1O` [G1P], the Michaelis-Menten constant (Km) in assay [1] (read-out: KM^G1P, SEM n.a.) is 180 µM; in assay [2] (read-out: KM^G1P, SEM n.a.), 130 µM.

The Km is the concentration of substrate that gives half-maximal velocity.
